Measured values taken from paper PMC11970527 (RSC Chemical Biology, 2025).
Where two headings read alike, the source gives them in different places.

Key:
VopA = assay: differential scanning fluorimetry; type: binding, Vibrio parahaemolyticus; settings: DSF, nonlinear curve fit, n = 5
phytase-4 = assay: stability against phytase-4 by 31P NMR; type: in vitro ADME, wheat; settings: 4 mM ligand, over 32 h, 100 mM acetate buffer pH 5
AvrA [1] = target: T1, AvrA (Salmonella enterica subsp. enterica serovar Typhimurium, UniProt E8XKZ3); assay: isothermal calorimetry; type: binding
T1 sequence (E8XKZ3 1-301): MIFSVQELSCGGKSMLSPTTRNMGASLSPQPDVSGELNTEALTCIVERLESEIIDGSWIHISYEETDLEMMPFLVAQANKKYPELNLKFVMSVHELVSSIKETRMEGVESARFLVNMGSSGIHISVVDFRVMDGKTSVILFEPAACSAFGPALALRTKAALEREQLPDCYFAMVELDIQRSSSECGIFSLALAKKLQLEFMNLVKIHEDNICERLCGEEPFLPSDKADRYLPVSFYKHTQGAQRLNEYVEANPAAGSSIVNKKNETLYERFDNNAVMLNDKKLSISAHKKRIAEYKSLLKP

[2] = Precipitation Assay with CaCl2; type: physicochemical; settings: 4 mM ligand, pH 7.4, 100 mM tris
TcdB CPD = TcdB CPD (Clostridioides difficile, UniProt P18177); assay: isothermal calorimetry; type: binding
AvrA [3] = target: T1, AvrA; settings: read-out: Kd previously described; cited from earlier work
[4] = pH 7.4; cited from earlier work

Chain of TcdB CPD (P18177 543-799 limits assumed): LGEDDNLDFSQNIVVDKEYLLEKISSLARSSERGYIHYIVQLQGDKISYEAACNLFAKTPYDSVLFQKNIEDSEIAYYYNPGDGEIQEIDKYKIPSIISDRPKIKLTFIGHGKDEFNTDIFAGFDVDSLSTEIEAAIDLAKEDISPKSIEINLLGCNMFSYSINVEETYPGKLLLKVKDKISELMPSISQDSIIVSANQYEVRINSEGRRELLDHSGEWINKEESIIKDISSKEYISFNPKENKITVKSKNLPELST

Question: For `O=P(O)(O)O[C@H]1[C@H](OP(=O)(O)O)[C@@H](OP(=O)(O)O)[C@H](OP(=O)(O)O)[C@@H](OP(=O)(O)O)[C@H]1OP(=O)(O)O` [IP6, myo-inositol hexakisphosphate], which “Maximal ΔTM” value (VopA) is on record?
Answer: 12.4 °C

Question: And the “stability in the presence of phytase-4” value (phytase-4)?
Answer: hydrolysed within the first hour

Question: What about the koff (AvrA [1]) of the same molecule?
Answer: 0.00171 s⁻¹

Question: What about the ΔH (AvrA [1]; AvrA, ITC, 20 °C, mean (SD)) of the same molecule?
Answer: −21.09 (0.12) kcal mol^−1

Question: And the Kd (AvrA [1]; K d, AvrA, ITC, 20 °C, mean (SD))?
Answer: 0.139 µM

Question: What about the “CaCl2 concentration that induces precipitation (X0)” value [2] of the same molecule?
Answer: 4 mM

Question: What about the Kd (TcdB CPD) of the same molecule?
Answer: 1.92 µM

Question: What about the koff (TcdB CPD) of the same molecule?
Answer: 0.0409 s⁻¹

Question: And the ΔH (TcdB CPD; TcdB CPD, ITC, 20 °C, mean (SD))?
Answer: −22.94 (0.05) kcal mol^−1

Question: What about the Kd (AvrA [3]) of the same molecule?
Answer: 5.18 µM

Question: And the net charge [4]?
Answer: −8
